Series [1] has as its target T1, human recombinant orexin-1 (hr-OX-1) receptor (Homo sapiens, UniProt O43613).
T1 construct: expressed in transfected cells; host or cells: CHO cells (CHO-hr-OX-1), purified plasma membrane fraction
T1 sequence (O43613 1-425): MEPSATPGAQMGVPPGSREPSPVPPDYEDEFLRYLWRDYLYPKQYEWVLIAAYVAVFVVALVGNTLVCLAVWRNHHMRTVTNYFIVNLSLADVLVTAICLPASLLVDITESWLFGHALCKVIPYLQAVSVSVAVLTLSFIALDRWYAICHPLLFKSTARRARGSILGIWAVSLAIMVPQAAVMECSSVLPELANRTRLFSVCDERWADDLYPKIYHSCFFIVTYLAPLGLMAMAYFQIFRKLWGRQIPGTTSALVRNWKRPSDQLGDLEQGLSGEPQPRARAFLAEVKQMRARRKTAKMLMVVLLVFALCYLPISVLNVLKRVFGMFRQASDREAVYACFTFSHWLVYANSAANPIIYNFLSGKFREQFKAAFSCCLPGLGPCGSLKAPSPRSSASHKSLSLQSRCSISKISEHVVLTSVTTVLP
Nature of the series: hr-125I-orexin-A radioligand competition binding, orexin-1 receptor. To be noted: read-out: Orex-1 IC50. Here is the method:
(§1) In vitro radioligand binding assays were used for determination of the affinities of the compounds for both the orexin-1 and orexin-2 receptors.
(§2) In the frame of hr-^125I-orexin-A radioligand competition (displacement) experiments a fixed concentration of hr-^125I-orexin-A is incubated with increasing concentrations of unlabeled test compound in the presence of highly purified plasmamembranes bearing either the human recombinant orexin-1 (hr-OX-1) or the human recombinant orexin-2 (hr-OX-2) receptors. Specific binding of hr-^125I-orexin-A to plasmamembranes is measured at each concentrations of the unlabeled compound and thus a competition curve is generated. The concentration of unlabeled compound displacing 50% of specific binding (IC50) is calculated. In case of competitive interaction the binding affinity constant of the unlabeled compound (KI) is calculated according to the Cheng-Prusoff equation ([…]. Affinity of unlabeled compound for the receptor is equal to 1/KI.
(§3) Culturing the Chinese hamster ovarian cells expressing human recombinant orexin-1 or orexin-2 receptor proteins (CHO-hr-OX-1 or CHO-hr-OX-2 cells) was carried out in cell culture medium (MEM medium, supplemented with 40 mg/l prolin, 20 mg/l gentamycin, 300 mg/l geneticin, 10% dialysed fetal calf serum).
(§4) Adherent cells were plated into Greiner flasks (175 cm^2). 4-6 days later culture medium was removed and cells were scarped in calcium- and magnesium-free phosphate buffered saline (PBS, 20 ml/flask). The cell suspension was centrifuged at 1,000 g for 5 minutes (4° C.). The resulting pellet was resuspended and homogenized with a teflon pestle (4° C.), then layered onto a discontinous sucrose gradient and centrifuged at 105,000 g. […]
(§5) Serial dilution series were prepared from stock solutions (100% DMSO) with binding assay buffer in such a way that each samples contained a final concentration of 1% of DMSO in the receptor binding reaction mixture. […] The radioactivity remained on the filter was counted in a gamma counter (Wallac Automatic Gamma Counter 1470 Wizard).
Background: Displacement assays read how much labelled ligand stays bound in the presence of the test substance.

In series [2] the target is T2, human recombinant orexin-2 (hr-OX-2) receptor (Homo sapiens, UniProt O43614).
T2 construct: expressed in transfected cells; host or cells: CHO cells (CHO-hr-OX-2), purified plasma membrane fraction
T2 sequence (O43614 1-444): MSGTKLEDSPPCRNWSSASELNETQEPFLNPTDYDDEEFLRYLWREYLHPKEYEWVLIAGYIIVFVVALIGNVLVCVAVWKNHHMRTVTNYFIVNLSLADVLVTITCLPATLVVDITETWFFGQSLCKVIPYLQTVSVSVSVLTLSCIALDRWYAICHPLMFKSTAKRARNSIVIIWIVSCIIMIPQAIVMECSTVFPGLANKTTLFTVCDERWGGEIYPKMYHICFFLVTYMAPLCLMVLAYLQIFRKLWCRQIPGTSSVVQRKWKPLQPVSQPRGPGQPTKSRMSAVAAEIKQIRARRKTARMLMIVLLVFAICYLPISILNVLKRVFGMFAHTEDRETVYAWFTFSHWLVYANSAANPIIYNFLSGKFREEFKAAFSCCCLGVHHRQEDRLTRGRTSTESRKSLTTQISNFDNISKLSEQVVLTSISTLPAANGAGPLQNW
Nature of the series: hr-125I-orexin-A radioligand competition binding, orexin-2 receptor. To be noted: read-out: Orex-2 IC50. Here is the method:
as §1, §2, §3, §4, §5

The next series relates to orexin-1 receptors. To be noted: cited from earlier work.

Where no end group is shown, it is not given here.

For `Cn1nc(-c2ccccc2)c(CSc2ccccc2C(=O)Nc2ccc3ccccc3c2)c1Cl`, the IC50 (as a rule, the point on the concentration scale where inhibition reaches its midpoint) in series [1] was 33 nM; in series [2] it was 156 nM.

With `Cn1nc(-c2ccncc2)c(COc2ccccc2C(=O)Nc2cnc3ccccc3c2)c1Cl` [2-(5-Chloro-1-methyl-3-pyridin-4-yl-1H-pyrazol-4-ylmethoxy)-N-quinolin-3-ylbenzamide], the half-inhibitory concentration (IC50) is 51 nM in series [1] and 1100 nM in series [2].

For `Cn1nc(-c2cccnc2)c(CCc2ccccc2C(=O)Nc2cnc3ccccc3c2)c1Cl` [2-[2-(5-Chloro-1-methyl-3-pyridin-3-yl-1H-pyrazol-4-yl)ethyl]-N-quinolin-3-ylbenzamide], the IC50 is 57 nM in series [1] and 680 nM in series [2].

As to `Cn1nc(-c2ccccc2)c(COc2ccccc2C(=O)Nc2cnc3ccccc3c2)c1Cl` [Example 65, 2-(3-Phenyl-5-chloro-1-methyl-1H-pyrazol-4-ylmethoxy)-N-quinolin-3-ylbenzamide], the melting point (in general, the temperature of the solid-liquid transition) worked out at 170 °C.

On to “orexin A: "Orexin A consists of 33 aminoacid residues with two intramolecular disulphide bridges" (QPLPDCCRQKTCSCRLYELLHGAGNHAAGILTL; disulfide (positions not given here); ends not checked; UniProt O43612 34-66, looked up)”, for which the “fold more effective on the orexin-1 receptors compared to orexin B” value with orexin-1 receptors was 10-50 fold.

Source of the values: patent publication US7659298B2, “Pyrazole derivatives and use thereof as orexin receptor antagonists” (sanofi-aventis, priority 2003, dated 2010).
